Structures can show the parent of a compound that is named as a salt.
Molecular target: T1, catalytic domain of human PARP14 (residues 1611 to 1801) with NanoLuc tag (Homo sapiens, UniProt Q460N5)
T1 construct: expressed in transfected cells; host or cells: HEK-293T cells (ATCC), pcDNA3.1(-) vector
T1 sequence (Q460N5 1611-1801): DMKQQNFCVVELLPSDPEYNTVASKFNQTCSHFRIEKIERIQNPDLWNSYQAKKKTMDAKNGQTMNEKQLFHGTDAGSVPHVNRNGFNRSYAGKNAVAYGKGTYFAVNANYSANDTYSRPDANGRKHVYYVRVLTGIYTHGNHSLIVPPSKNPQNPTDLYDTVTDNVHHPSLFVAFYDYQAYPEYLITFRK
Assay: NanoLuc assay for the degradation of PARP14 (NanoLuc-tagged PARP14 overexpressed in HEK-293T cells, 2 hours)
Type: cell-based
Conditions: Assay A (Example A): NanoLuc-tagged PARP14 degradation in HEK-293T cells, read-out: DC50
Description: The insert also contained a NanoLuc tag on the N terminus of the PARP14 protein.
Degradation of PARP14 protein was assessed using measurement of the NanoLuc tag as proxy for the PARP14 protein. […] Plasmid DNA was diluted in empty vector DNA then added to 1.163 mL of phenol red free OptiMEM (Thermo Fisher). Plasmid DNA concentrations used in each assay described in Table 1. The plasmid DNA was mixed with 78.5 μL of Fugene HD (Promega) and allowed to incubate 5 minutes.
The transfection was incubated for 24 hrs at 37 degrees in an incubator supplemented with 5% CO2. The cells were then trypsinized and brought up in phenol red free OptiMEM media. […] 40 nL of a dose response curve diluted in DMSO of each test compound was added to the cell plate using a Mosquito (TTP Labtech) and the plate was incubated at 37° C. for 2 hours. Assay plate was brought to room temperature then 20 μL per well of NanoGlo (Promega) was added to the plate. Luminescence was measured on an Envision (Perkin Elmer).
The average DMSO was calculated from 32 wells containing 0.1% DMSO only in columns 12 and 24 of the assay plate. The % of DMSO values were calculated as described below: […]
The % of DMSO values were plotted as a function of compound concentration and the following 4-parameter fit was applied to derive the DC50 values:
where top, bottom, and Hill Coefficient are allowed to float. Y is the % of DMSO and X is the compound concentration
DC50 data for the Example compounds is provided below in Table 2 (“+” is <0.1 μM; “++” is ≥0.1 μM and <1 μM; and “+++” is ≥1 μM).

| SMILES | DC50 |
| --- | --- |
| O=C1CCC(N2C(=O)c3cccc(NCCOCCOCCC(=O)N4CCC(COc5cc(F)c6c(=O)[nH]c(CSC7CCOCC7)nc6c5)CC4)c3C2=O)C(=O)N1 (centres unmarked) [Example 4, 2-(2,6-dioxopiperidin-3-yl)-4-((2-(2-(3-(4-(((5-fluoro-4-oxo-2-(((tetrahydro-2H-pyran-4-yl)thio)methyl)-3,4-dihydroquinazolin-7-yl)oxy)methyl)piperidin-1-yl)-3-oxopropoxy)ethoxy)ethyl)amino)isoindoline-1,3-dione] | < 100 nM |
| O=C1CCC(N2C(=O)c3cccc(NCCC(=O)N4CCC(COc5cc(F)c6c(=O)[nH]c(CSC7CCOCC7)nc6c5)CC4)c3C2=O)C(=O)N1 (centres unmarked) [Example 5, 2-(2,6-dioxopiperidin-3-yl)-4-((3-(4-(((5-fluoro-4-oxo-2-(((tetrahydro-2H-pyran-4-yl)thio)methyl)-3,4-dihydroquinazolin-7-yl)oxy)methyl)piperidin-1-yl)-3-oxopropyl)amino)isoindoline-1,3-dione] | < 100 nM |
| O=C1CCC(N2C(=O)c3cccc(NCC(=O)N4CCC(COc5cc(F)c6c(=O)[nH]c(CSC7CCOCC7)nc6c5)CC4)c3C2=O)C(=O)N1 (centres unmarked) [Example 6, 2-(2,6-dioxopiperidin-3-yl)-4-((2-(4-(((5-fluoro-4-oxo-2-(((tetrahydro-2H-pyran-4-yl)thio)methyl)-3,4-dihydroquinazolin-7-yl)oxy)methyl)piperidin-1-yl)-2-oxoethyl)amino)isoindoline-1,3-dione] | < 100 nM |
| O=C(CN1CCC(COc2cc(F)c3c(=O)[nH]c(CSC4CCOCC4)nc3c2)CC1)NCCOCCOCCNc1cccc2c1C(=O)N(C1CCC(=O)NC1=O)C2=O (centres unmarked) [Example 7, N-(2-(2-(2-((2-(2,6-dioxopiperidin-3-yl)-1,3-dioxoisoindolin-4-yl)amino)ethoxy)ethoxy)ethyl)-2-(4-(((5-fluoro-4-oxo-2-(((tetrahydro-2H-pyran-4-yl)thio)methyl)-3,4-dihydroquinazolin-7-yl)oxy)methyl)piperidin-1-yl)acetamide] | < 100 nM |
| O=C(CN1CCC(COc2cc(F)c3c(=O)[nH]c(CSC4CCOCC4)nc3c2)CC1)NCCCCNc1cccc2c1C(=O)N(C1CCC(=O)NC1=O)C2=O (centres unmarked) [Example 8, N-(4-((2-(2,6-dioxopiperidin-3-yl)-1,3-dioxoisoindolin-4-yl)amino)butyl)-2-(4-(((5-fluoro-4-oxo-2-(((tetrahydro-2H-pyran-4-yl)thio)methyl)-3,4-dihydroquinazolin-7-yl)oxy)methyl)piperidin-1-yl)acetamide] | < 100 nM |
| O=C1CCC(N2C(=O)c3cccc(NCCCCCCCCC(=O)N4CCC(COc5cc(F)c6c(=O)[nH]c(CSC7CCOCC7)nc6c5)CC4)c3C2=O)C(=O)N1 (centres unmarked) [Example 9, 2-(2,6-dioxopiperidin-3-yl)-4-((9-(4-(((5-fluoro-4-oxo-2-(((tetrahydro-2H-pyran-4-yl)thio)methyl)-3,4-dihydroquinazolin-7-yl)oxy)methyl)piperidin-1-yl)-9-oxononyl)amino)isoindoline-1,3-dione] | < 100 nM |
| O=C1CCC(N2C(=O)c3cccc(NCCCOCCC(=O)N4CCC(COc5cc(F)c6c(=O)[nH]c(CSC7CCOCC7)nc6c5)CC4)c3C2=O)C(=O)N1 (centres unmarked) [Example 10, 2-(2,6-dioxopiperidin-3-yl)-4-((3-(3-(4-(((5-fluoro-4-oxo-2-(((tetrahydro-2H-pyran-4-yl)thio)methyl)-3,4-dihydroquinazolin-7-yl)oxy)methyl)piperidin-1-yl)-3-oxopropoxy)propyl)amino)isoindoline-1,3-dione] | < 100 nM |
| O=C1CCC(N2C(=O)c3cccc(NCCCCCCC(=O)N4CCC(COc5cc(F)c6c(=O)[nH]c(CSC7CCOCC7)nc6c5)CC4)c3C2=O)C(=O)N1 (centres unmarked) [Example 11, 2-(2,6-dioxopiperidin-3-yl)-4-((7-(4-(((5-fluoro-4-oxo-2-(((tetrahydro-2H-pyran-4-yl)thio)methyl)-3,4-dihydroquinazolin-7-yl)oxy)methyl)piperidin-1-yl)-7-oxoheptyl)amino)isoindoline-1,3-dione] | < 100 nM |
| O=C1CCC(N2C(=O)c3cccc(NCCCCC(=O)N4CCC(COc5cc(F)c6c(=O)[nH]c(CSC7CCOCC7)nc6c5)CC4)c3C2=O)C(=O)N1 (centres unmarked) [Example 12, 2-(2,6-dioxopiperidin-3-yl)-4-((5-(4-(((5-fluoro-4-oxo-2-(((tetrahydro-2H-pyran-4-yl)thio)methyl)-3,4-dihydroquinazolin-7-yl)oxy)methyl)piperidin-1-yl)-5-oxopentyl)amino)isoindoline-1,3-dione] | < 100 nM |
| O=C(CN1CCC(COc2cc(F)c3c(=O)[nH]c(CSC4CCOCC4)nc3c2)CC1)NCCOCCCNc1cccc2c1C(=O)N(C1CCC(=O)NC1=O)C2=O (centres unmarked) [Example 13, N-(2-(3-((2-(2,6-dioxopiperidin-3-yl)-1,3-dioxoisoindolin-4-yl)amino)propoxy)ethyl)-2-(4-(((5-fluoro-4-oxo-2-(((tetrahydro-2H-pyran-4-yl)thio)methyl)-3,4-dihydroquinazolin-7-yl)oxy)methyl)piperidin-1-yl)acetamide] | < 100 nM |
| O=C1CCC(N2C(=O)c3ccc(NCC(=O)N4CCC(COc5cc(F)c6c(=O)[nH]c(CSC7CCOCC7)nc6c5)CC4)cc3C2=O)C(=O)N1 (centres unmarked) [Example 14, 2-(2,6-dioxopiperidin-3-yl)-5-((2-(4-(((5-fluoro-4-oxo-2-(((tetrahydro-2H-pyran-4-yl)thio)methyl)-3,4-dihydroquinazolin-7-yl)oxy)methyl)piperidin-1-yl)-2-oxoethyl)amino)isoindoline-1,3-dione] | < 100 nM |
| O=C1CCC(N2C(=O)c3ccc(N4CCN(CC5CCN(C(=O)CN6CCC(COc7cc(F)c8c(=O)[nH]c(CSC9CCOCC9)nc8c7)CC6)CC5)CC4)cc3C2=O)C(=O)N1 (centres unmarked) [Example 15, 2-(2,6-dioxopiperidin-3-yl)-5-(4-((1-(2-(4-(((5-fluoro-4-oxo-2-(((tetrahydro-2H-pyran-4-yl)thio)methyl)-3,4-dihydroquinazolin-7-yl)oxy)methyl)piperidin-1-yl)acetyl)piperidin-4-yl)methyl)piperazin-1-yl)isoindoline-1,3-dione formate] | < 100 nM |
| O=C1CCC(Nc2ccc(C(=O)N3CCC(COc4cc(F)c5c(=O)[nH]c(CSC6CCOCC6)nc5c4)CC3)cc2)C(=O)N1 (centres unmarked) [Example 16, 3-((4-(4-(((5-fluoro-4-oxo-2-(((tetrahydro-2H-pyran-4-yl)thio)methyl)-3,4-dihydroquinazolin-7-yl)oxy)methyl)piperidine-1-carbonyl)phenyl)amino)piperidine-2,6-dione] | < 100 nM |
| O=C1CCC(N2Cc3c(cccc3N3CCN(CC4CCN(C(=O)CN5CCC(COc6cc(F)c7c(=O)[nH]c(CSC8CCOCC8)nc7c6)CC5)CC4)CC3)C2=O)C(=O)N1 (centres unmarked) [Example 17, 3-(4-(4-((1-(2-(4-(((5-fluoro-4-oxo-2-(((tetrahydro-2H-pyran-4-yl)thio)methyl)-3,4-dihydroquinazolin-7-yl)oxy)methyl)piperidin-1-yl)acetyl)piperidin-4-yl)methyl)piperazin-1-yl)-1-oxoisoindolin-2-yl)piperidine-2,6-dione] | < 100 nM |
| O=C1CCC(Nc2ccc(C3CCN(CC4CCN(C(=O)CN5CCC(COc6cc(F)c7c(=O)[nH]c(CSC8CCOCC8)nc7c6)CC5)CC4)CC3)cc2)C(=O)N1 (centres unmarked) [Example 18, 3-((4-(1-((1-(2-(4-(((5-fluoro-4-oxo-2-(((tetrahydro-2H-pyran-4-yl)thio)methyl)-3,4-dihydroquinazolin-7-yl)oxy)methyl)piperidin-1-yl)acetyl)piperidin-4-yl)methyl)piperidin-4-yl)phenyl)amino)piperidine-2,6-dione] | < 100 nM |
| O=C1CCN(c2ccc(C3CCN(CC4CCN(C(=O)CN5CCC(COc6cc(F)c7c(=O)[nH]c(CSC8CCOCC8)nc7c6)CC5)CC4)CC3)cc2)C(=O)N1 [Example 19, 1-(4-(1-((1-(2-(4-(((5-fluoro-4-oxo-2-(((tetrahydro-2H-pyran-4-yl)thio)methyl)-3,4-dihydroquinazolin-7-yl)oxy)methyl)piperidin-1-yl)acetyl)piperidin-4-yl)methyl)piperidin-4-yl)phenyl)dihydropyrimidine-2,4(1H,3H)-dione] | < 100 nM |
| O=C1CCC(N2C(=O)c3cccc(N4CCC(CN5CCC(C(=O)N6CCC(COc7cc(F)c8c(=O)[nH]c(CSC9CCOCC9)nc8c7)CC6)CC5)CC4)c3C2=O)C(=O)N1 (centres unmarked) [Example 20, 2-(2,6-dioxopiperidin-3-yl)-4-(4-((4-(4-(((5-fluoro-4-oxo-2-(((tetrahydro-2H-pyran-4-yl)thio)methyl)-3,4-dihydroquinazolin-7-yl)oxy)methyl)piperidine-1-carbonyl)piperidin-1-yl)methyl)piperidin-1-yl)isoindoline-1,3-dione] | < 100 nM |

Source: US20240101540A1, “TARGETED PROTEIN DEGRADATION OF PARP14 FOR USE IN THERAPY” (Ribon Therapeutics, Inc., priority 2022, published 2024)
